Reference: PubChem BioAssay AID264 (DTP/NCI, 2004)
Values joined by “and” are separate entries in the source; they are usually repeats but may differ in a detail not shown here. Equal values may be shown once. Records with an inconclusive call do not appear. Peptide text beside a SMILES is read from it. * marks the point of attachment. Trt = c1ccc(C(c2ccccc2)(c2ccccc2)*)cc1; Cbz = O=C(OCc1ccccc1)*

Tested on: nude mice, LX-1 lung xenograft intrarenal, tumor weight T/C
Assay: NCI In Vivo Anticancer Drug Screen. Data for tumor model Human Lung LX-1 Xenograft (intrarenal inoculation) in NU/NU Swiss (nude) mice
Conditions: endpoint: mean tumor weight change, higher = larger tumour
Procedure: The antitumor activity of compounds was measured in mice bearing transplantable tumors. Survival or tumor size were measured and the results are expressed as the measurement made in the treated group (T) divided by the measurement made in the vehicle treated control group (C). The tumor model used in this assay is Human Lung LX-1 Xenograft (intrarenal inoculation) in NU/NU Swiss (nude) mice

[1] = dose: 300.0 mg/kg/injection, schedule: Q04DX003 (sc), vehicle: Klucel (hydroxypropylcellulose) (HPC)
[2] = dose: 600.0 mg/kg/injection, schedule: Q04DX003 (sc), vehicle: Klucel (hydroxypropylcellulose) (HPC)
[3] = dose: 1200.0 mg/kg/injection, schedule: Q04DX003 (sc), vehicle: Klucel (hydroxypropylcellulose) (HPC)
[4] = dose: 2400.0 mg/kg/injection, schedule: Q04DX003 (sc), vehicle: Klucel (hydroxypropylcellulose) (HPC)
[5] = dose: 9.0 mg/kg/injection, schedule: Q04DX003 (sc), vehicle: saline with Tween-80
[6] = dose: 18.0 mg/kg/injection, schedule: Q04DX003 (sc), vehicle: saline with Tween-80

How did the T/C (dose: 300.0 mg/kg/injection, schedule: Q04DX003 (sc), vehicle: distilled water + Tween-80) turn out when `COC(=O)C(CSC(c1ccccc1)(c1ccccc1)c1ccccc1)NC(=O)C(CC(N)=O)NC(=O)OCc1ccccc1` (stereo not drawn) (Cbz-Asn-Cys(Trt)-OMe; configuration not given here) was run?
Its T/C is 79 % of control.

What about the T/C (dose: 1200.0 mg/kg/injection, schedule: Q04DX003 (sc), vehicle: distilled water + Tween-80) of the same molecule?
Its T/C is 105 % of control.

What about the T/C (dose: 2400.0 mg/kg/injection, schedule: Q04DX003 (sc), vehicle: distilled water + Tween-80) of the same molecule?
Its T/C is 116 % of control.

Which results are given for `COc1cccc2c1C(=O)c1c(O)c3c(c(O)c1C2=O)C[C@@](O)(C(C)=O)C[C@@H]3OC1CC(N(C)C)C(O)C(C)O1` (stereo not given in full)?
T/C (dose: 2.0 mg/kg/injection, schedule: Q01DX010 (sc), vehicle: water): 200 % of control; T/C (dose: 4.0 mg/kg/injection, schedule: Q01DX010 (sc), vehicle: water): 80 % of control; T/C (dose: 6.0 mg/kg/injection, schedule: Q04DX003 (sc), vehicle: water): 59 % of control; T/C (dose: 12.0 mg/kg/injection, schedule: Q04DX003 (sc), vehicle: water): 88 % of control

Which T/C [1] does the source give for `OC1CCCC2CCC[N-]C12.OC1CCCC2CCC[N-]C12.[Mn+2]` (stereo not given) here?
Its T/C is 95 % of control.

What about the T/C [2] of the same molecule?
The T/C was 52 % of control.

What about the T/C [3] of the same molecule?
Its T/C is 46 % of control.

What about the T/C [4] of the same molecule?
Its T/C is 63 % of control.

With `NC(=O)CC(N)C(=O)O` (stereo not given) as the molecule, how does the T/C (dose: 800.0 mg/kg/injection, schedule: Q04DX003 (sc), vehicle: saline) read?
Its T/C is 87 % of control.

What about the T/C (dose: 1600.0 mg/kg/injection, schedule: Q04DX003 (sc), vehicle: saline) of the same molecule?
Its T/C is 102 % of control.

And the T/C (dose: 3200.0 mg/kg/injection, schedule: Q04DX003 (sc), vehicle: saline)?
Its T/C is 77 % of control.

What does the source list for `Nc1nc(-c2cccc3ccccc23)cc2ccccc12`?
T/C (dose: 100.0 mg/kg/injection, schedule: Q04DX003 (sc), vehicle: saline with Tween-80): 107 % of control; T/C (dose: 200.0 mg/kg/injection, schedule: Q04DX003 (sc), vehicle: saline with Tween-80): 91 % of control; T/C (dose: 400.0 mg/kg/injection, schedule: Q04DX003 (sc), vehicle: saline with Tween-80): 94 % of control; T/C (dose: 800.0 mg/kg/injection, schedule: Q04DX003 (sc), vehicle: saline with Tween-80): 53 % of control

What does the source list for `C1CCC2C[N-]CCC2C1.C1CCC2C[N-]CCC2C1.C1CCC2C[N-]CCC2C1.C1CCC2C[N-]CCC2C1.[Cl][Rh][Cl]` (stereo not given)?
T/C (dose: 4.5 mg/kg/injection, schedule: Q04DX003 (sc), vehicle: saline with Tween-80): 64 % of control; T/C [5]: 89 % of control; T/C [6]: 63 % of control; T/C (dose: 36.0 mg/kg/injection, schedule: Q04DX003 (sc), vehicle: saline with Tween-80): 60 % of control

Which T/C [1] does the source give for `CCC(=O)O[C@H]1CC[C@H]2[C@@H]3CCC4=CC(=O)CC[C@]4(C)[C@H]3CC[C@]12C` here?
The T/C was 77 % of control.

What about the T/C [2] of the same molecule?
Its T/C is 59 % of control.

And the T/C [3]?
Its T/C is 65 % of control.

What about the T/C [4] of the same molecule?
The T/C was 69 % of control.

How did the T/C (dose: 100.0 mg/kg/injection, schedule: Q04DX003 (sc), vehicle: Klucel (hydroxypropylcellulose) (HPC)) turn out when `CCCCCCCCCCCCCCC/C([O-])=N/[N+](C)(C)CC(C)O` (stereo not given) was run?
Its T/C is 66 % of control.

And the T/C (dose: 200.0 mg/kg/injection, schedule: Q04DX003 (sc), vehicle: Klucel (hydroxypropylcellulose) (HPC))?
The T/C was 54 % of control.

What about the T/C (dose: 400.0 mg/kg/injection, schedule: Q04DX003 (sc), vehicle: Klucel (hydroxypropylcellulose) (HPC)) of the same molecule?
The T/C was 103 % of control.

What about the T/C (dose: 800.0 mg/kg/injection, schedule: Q04DX003 (sc), vehicle: Klucel (hydroxypropylcellulose) (HPC)) of the same molecule?
The T/C was 77 % of control.

And the T/C [3]?
The T/C was 77 % of control.

And the T/C [4]?
Its T/C is 69 % of control.

With `O=NN(CCCl)C(=O)NC1CCCCC1` as the molecule, how does the T/C (dose: 4.0 mg/kg/injection, schedule: Q01DX010 (ip), vehicle: saline with Tween-80) read?
Its T/C is 101 % of control.

What about the T/C (dose: 8.0 mg/kg/injection, schedule: Q01DX010 (ip), vehicle: saline with Tween-80) of the same molecule?
Its T/C is 19 % of control.

What about the T/C (dose: 8.0 mg/kg/injection, schedule: Q01DX010 (sc), vehicle: saline with Tween-80) of the same molecule?
The T/C was 112 % of control.

What about the T/C (dose: 8.0 mg/kg/injection, schedule: Q04DX003 (sc), vehicle: carboxymethylcellulose (CMC)) of the same molecule?
The T/C was 64 % of control and 65 % of control.

What about the T/C (dose: 12.5 mg/kg/injection, schedule: Q04DX003 (sc), vehicle: Klucel (hydroxypropylcellulose) (HPC)) of the same molecule?
The T/C was 35 % of control.

What about the T/C (dose: 13.33 mg/kg/injection, schedule: Q04DX003 (ip), vehicle: saline with Tween-80) of the same molecule?
Its T/C is 236 % of control.

What about the T/C (dose: 16.0 mg/kg/injection, schedule: Q01DX010 (ip), vehicle: saline with Tween-80) of the same molecule?
The T/C was 11 % of control.

What about the T/C (dose: 16.0 mg/kg/injection, schedule: Q01DX010 (sc), vehicle: saline with Tween-80) of the same molecule?
The T/C was 79 % of control.

What about the T/C (dose: 26.65 mg/kg/injection, schedule: Q04DX003 (ip), vehicle: saline with Tween-80) of the same molecule?
Its T/C is 152 % of control.

What about the T/C (dose: 32.0 mg/kg/injection, schedule: Q01DX010 (sc), vehicle: saline with Tween-80) of the same molecule?
The T/C was -16 % of control.

And the T/C (dose: 32.0 mg/kg/injection, schedule: Q04DX003 (sc), vehicle: carboxymethylcellulose (CMC))?
Its T/C is 45 % of control and 52 % of control.

What about the T/C (dose: 50.0 mg/kg/injection, schedule: Q04DX003 (sc), vehicle: Klucel (hydroxypropylcellulose) (HPC)) of the same molecule?
The T/C was 119 % of control.

What about the T/C (dose: 53.33 mg/kg/injection, schedule: Q04DX003 (ip), vehicle: saline with Tween-80) of the same molecule?
The T/C was -38 % of control.

And the T/C (dose: 64.0 mg/kg/injection, schedule: Q04DX003 (sc), vehicle: carboxymethylcellulose (CMC))?
The T/C was 10 % of control and 29 % of control.

What does the source list for `C1OC1C1CO1` (stereo not given)?
T/C (dose: 12.5 mg/kg/injection, schedule: Q01DX010 (sc), vehicle: saline): 106 % of control; T/C (dose: 25.0 mg/kg/injection, schedule: Q01DX010 (sc), vehicle: saline): 80 % of control; T/C (dose: 50.0 mg/kg/injection, schedule: Q01DX010 (sc), vehicle: saline): 66 % of control

Which results are given for `O=C1OC(=O)[C@H]2[C@@H]1[C@H]1C=C[C@@H]2OC1=O`?
T/C (dose: 300.0 mg/kg/injection, schedule: Q04DX003 (sc), vehicle: suspension in saline): 90 % of control; T/C (dose: 600.0 mg/kg/injection, schedule: Q04DX003 (sc), vehicle: suspension in saline): 104 % of control; T/C (dose: 1200.0 mg/kg/injection, schedule: Q04DX003 (sc), vehicle: suspension in saline): 72 % of control

With `CCC1OCC(C(Cl)CCl)O1` (stereo not given) as the molecule, how does the T/C [1] read?
The T/C was 115 % of control.

What about the T/C [2] of the same molecule?
The T/C was 88 % of control.

What about the T/C [3] of the same molecule?
The T/C was 26 % of control.

Which results are given for `COc1cccc2c1C(=O)c1c(O)c3c(c(O)c1C2=O)C[C@@](O)(C(=O)CO)C[C@@H]3OC1CC(N)C(OC)C(C)O1` (stereo not given in full)?
T/C (dose: 0.75 mg/kg/injection, schedule: Q01DX010 (sc), vehicle: saline): 29 % of control; T/C (dose: 3.0 mg/kg/injection, schedule: Q01DX010 (sc), vehicle: saline): 14 % of control

With `CN(N=O)C(=O)N[C@@H](C=O)[C@@H](O)[C@H](O)[C@H](O)CO` as the molecule, how does the T/C (dose: 75.0 mg/kg/injection, schedule: Q04DX003 (sc), vehicle: other) read?
Its T/C is 32 % of control.

What about the T/C (dose: 75.0 mg/kg/injection, schedule: Q04DX003 (sc), vehicle: saline) of the same molecule?
Its T/C is 39 % of control.

And the T/C (dose: 150.0 mg/kg/injection, schedule: Q04DX003 (sc), vehicle: other)?
The T/C was 10 % of control.

And the T/C (dose: 150.0 mg/kg/injection, schedule: Q04DX003 (sc), vehicle: saline)?
Its T/C is 22 % of control.

What about the T/C (dose: 300.0 mg/kg/injection, schedule: Q04DX003 (sc), vehicle: saline) of the same molecule?
Its T/C is -56 % of control.

With `COc1cc(NS(C)(=O)=O)ccc1Nc1c2ccccc2nc2ccccc12` as the molecule, how does the T/C (dose: 0.47 mg/kg/injection, schedule: Q01DX010 (sc), vehicle: clinical formulation) read?
The T/C was 151 % of control.

What about the T/C (dose: 0.75 mg/kg/injection, schedule: Q01DX010 (sc), vehicle: other) of the same molecule?
Its T/C is 99 % of control.

What about the T/C (dose: 0.94 mg/kg/injection, schedule: Q01DX010 (sc), vehicle: lactic acid) of the same molecule?
The T/C was 84 % of control.

What about the T/C (dose: 1.5 mg/kg/injection, schedule: Q01DX010 (sc), vehicle: other) of the same molecule?
The T/C was 88 % of control.

What about the T/C (dose: 1.88 mg/kg/injection, schedule: Q01DX010 (sc), vehicle: clinical formulation) of the same molecule?
The T/C was 110 % of control.

What about the T/C (dose: 1.88 mg/kg/injection, schedule: Q01DX010 (sc), vehicle: lactic acid) of the same molecule?
Its T/C is 109 % of control.

And the T/C (dose: 3.0 mg/kg/injection, schedule: Q01DX010 (sc), vehicle: other)?
Its T/C is 64 % of control.

What about the T/C (dose: 3.75 mg/kg/injection, schedule: Q01DX010 (sc), vehicle: lactic acid) of the same molecule?
Its T/C is 46 % of control.

With `O=c1[nH]c(=O)n([C@H]2CCCO2)cc1F` as the molecule, how does the T/C (dose: 50.0 mg/kg/injection, schedule: Q01DX010 (sc), vehicle: Klucel (hydroxypropylcellulose) (HPC)) read?
Its T/C is 37 % of control.

And the T/C (dose: 200.0 mg/kg/injection, schedule: Q01DX010 (sc), vehicle: Klucel (hydroxypropylcellulose) (HPC))?
Its T/C is 93 % of control.

What about the T/C (dose: 400.0 mg/kg/injection, schedule: Q01DX010 (sc), vehicle: Klucel (hydroxypropylcellulose) (HPC)) of the same molecule?
Its T/C is 103 % of control.

`C[CH2][Pb]([CH2]C)([CH2]C)[O]C(=O)COc1ccccc1` was tested. Which T/C [5] did it give?
Its T/C is 47 % of control.

What about the T/C [6] of the same molecule?
The T/C was 47 % of control.
